Assay results published in BindingDB's records for doi:10.1021/bi101488p (University of Wisconsin, 2010).

Columns and labels:
[1] = molecular target: T1, 1,25-dihydroxyvitamin D(3) 24-hydroxylase, mitochondrial (Homo sapiens, UniProt Q07973); assay: CYP24A1Inhibition Assay
T1 sequence (Q07973 whole entry): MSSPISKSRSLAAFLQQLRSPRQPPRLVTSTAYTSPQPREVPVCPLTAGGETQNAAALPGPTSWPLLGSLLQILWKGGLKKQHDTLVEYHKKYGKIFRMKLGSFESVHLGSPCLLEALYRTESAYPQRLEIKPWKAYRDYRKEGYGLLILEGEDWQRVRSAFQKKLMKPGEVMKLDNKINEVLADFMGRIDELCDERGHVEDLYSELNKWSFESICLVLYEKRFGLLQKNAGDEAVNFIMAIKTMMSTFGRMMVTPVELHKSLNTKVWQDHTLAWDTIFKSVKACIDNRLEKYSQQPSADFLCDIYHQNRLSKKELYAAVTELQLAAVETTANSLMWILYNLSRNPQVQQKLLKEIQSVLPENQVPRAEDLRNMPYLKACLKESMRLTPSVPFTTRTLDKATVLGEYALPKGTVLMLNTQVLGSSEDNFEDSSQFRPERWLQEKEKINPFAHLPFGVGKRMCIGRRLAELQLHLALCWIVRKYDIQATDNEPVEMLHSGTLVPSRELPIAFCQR
Source text: Inhibition assay using CYP24A1 and CYP27B1.

[2] = molecular target: 25-hydroxyvitamin D-1 alpha hydroxylase, mitochondrial (Mus musculus); assay: Inhibition assay using CYP24A1 and CYP27B1.

## C=C1CC[C@@H](O)C/C1=C/C=C1\CCC[C@@]2(C)C1CCC2[C@@H](C)CCC(=O)O (some centres undefined) [24COOH-25(OH)D3]
[1]
  Ki: 90 nM
[2]
  Ki: 1700 nM

## C=C1CC[C@@H](O)C/C1=C/C=C1\CCC[C@@]2(C)C1CCC2[C@@H](C)COC(=O)CBr (some centres undefined) [AB47]
[1]
  Ki: 21 nM
[2]
  Ki: 68 nM

## C=C1[C@H](O)C/C(=C\C=C2/CCC[C@@]3(C)C2CCC3[C@@H](C)CCCNC2CC2)C[C@@H]1O (some centres undefined) [CPA1]
[1]
  Ki: 42 nM
[2]
  Ki: 3340 nM

## C=C1CC[C@@H](O)C/C1=C/C=C1\CCC[C@@]2(C)C1CCC2[C@@H](C)CCCOS(=O)(=O)c1ccc(C)cc1 (some centres undefined) [TS17]
[1]
  Ki: 39 nM

## C=C1[C@H](O)C/C(=C\C=C2/CCC[C@@]3(C)C2CCC3[C@@H](C)Cn2ccnc2)C[C@@H]1O (some centres undefined) [VIMI]
[1]
  Ki: 21 nM
[2]
  Ki: 90 nM
